Laboratory results published in ChEMBL document CHEMBL1201862, “PubChem BioAssay data set” (2004).
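48-hour exposure; five concentrations; linearly interpolated endpoints. Here, GI50 denotes the concentration required for 50% inhibition of growth.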 Active and inactive are the calls of the source. Cut-off read from the data, not from the text of the source: active = GI50 up to about 1.1 µM and inactive = higher.

Legend:
Assay in all cases: NCI-60 cell line screen, 48 h
NCI-H226 = test system: NCI-H226
SK-OV-3 = test system: SK-OV-3
OVCAR-8 = test system: OVCAR-8
HOP-62 = test system: HOP-62
LXFL 529 = test system: LXFL 529
HCT-116 = test system: HCT-116
SR = test system: SR
TK-10 = test system: TK-10
NCI-H23 = test system: NCI-H23
SF-268 = test system: SF-268
HT-29 = test system: HT-29
CAKI-1 = test system: CAKI-1
DMS-114 = test system: DMS-114
K562 = test system: K562
HCC 2998 = test system: HCC 2998
COLO 205 = test system: COLO 205
RXF 631 = test system: RXF 631
HCT-15 = test system: HCT-15
A549 = test system: A549
RXF 393 = test system: RXF 393
SW-620 = test system: SW-620
SK-MEL-5 = test system: SK-MEL-5
KM-20L2 = test system: KM-20L2
EKVX = test system: EKVX
U-251 = test system: U-251
OVCAR-5 = test system: OVCAR-5
Malme-3M = test system: Malme-3M
OVCAR-3 = test system: OVCAR-3
SNB-19 = test system: SNB-19
CCRF-CEM = test system: CCRF-CEM
IGROV-1 = test system: IGROV-1
XF498 = test system: XF498
MOLT-4 = test system: MOLT-4
SF-295 = test system: SF-295
M14 = test system: M14
UO-31 = test system: UO-31
HOP-92 = test system: HOP-92
HOP-18 = test system: HOP-18
SNB-78 = test system: SNB-78
DLD-1 = test system: DLD-1
M19-MEL = test system: M19-MEL
HL-60 = test system: HL-60
OVCAR-4 = test system: OVCAR-4
LOX IMVI = test system: LOX IMVI
A498 = test system: A498
UACC-62 = test system: UACC-62
ACHN = test system: ACHN
KM12 = test system: KM12
SNB-75 = test system: SNB-75
NCI-H460 = test system: NCI-H460
SN12C = test system: SN12C
SK-MEL-2 = test system: SK-MEL-2
786-0 = test system: 786-0
SF-539 = test system: SF-539
NCI-H522 = test system: NCI-H522
UACC-257 = test system: UACC-257
DMS-273 = test system: DMS-273
SK-MEL-28 = test system: SK-MEL-28

`COC1=CC(=O)NCCN1` was tested, and the GI50 (NCI-H226) was > 100 µM (inactive), the GI50 (SK-OV-3) was > 100 µM (inactive) and the GI50 (OVCAR-8) was > 100 µM (inactive). The GI50 (HOP-62) was > 100 µM (inactive), the GI50 (LXFL 529) was > 100 µM (inactive) and the GI50 (HCT-116) was 74.3 µM (inactive). The GI50 (SR) was > 100 µM (inactive), the GI50 (TK-10) was > 100 µM (inactive) and the GI50 (NCI-H23) was > 100 µM (inactive). The GI50 (SF-268) was > 100 µM (inactive), the GI50 (HT-29) was > 100 µM (inactive) and the GI50 (CAKI-1) was > 100 µM (inactive). The GI50 (DMS-114) was > 100 µM (inactive), the GI50 (K562) was > 100 µM (inactive) and the GI50 (HCC 2998) was > 100 µM (inactive). For the same molecule, the GI50 (COLO 205) was 41.8 µM (inactive), the GI50 (RXF 631) was > 100 µM (inactive) and the GI50 (HCT-15) was 52.2 µM. For the same molecule, the GI50 (A549) was > 100 µM (inactive), the GI50 (RXF 393) was > 100 µM (inactive) and the GI50 (SW-620) was 18.2 µM (inactive). The GI50 (SK-MEL-5) was > 100 µM (inactive), the GI50 (KM-20L2) was > 100 µM (inactive) and the GI50 (EKVX) was > 100 µM (inactive). The GI50 (U-251) was > 100 µM (inactive), the GI50 (OVCAR-5) was > 100 µM (inactive) and the GI50 (Malme-3M) was > 100 µM (inactive). For the same molecule, the GI50 (OVCAR-3) was > 100 µM (inactive), the GI50 (SNB-19) was > 100 µM (inactive) and the GI50 (CCRF-CEM) was 51.4 µM (inactive). For the same molecule, the GI50 (IGROV-1) was > 100 µM (inactive), the GI50 (XF498) was > 100 µM (inactive) and the GI50 (MOLT-4) was > 100 µM (inactive). For the same molecule, the GI50 (SF-295) was > 100 µM (inactive), the GI50 (M14) was > 100 µM (inactive) and the GI50 (UO-31) was > 100 µM (inactive). The GI50 (HOP-92) was > 100 µM (inactive), the GI50 (HOP-18) was > 100 µM (inactive) and the GI50 (SNB-78) was > 100 µM (inactive). For the same molecule, the GI50 (DLD-1) was > 100 µM (inactive), the GI50 (M19-MEL) was > 100 µM (inactive) and the GI50 (HL-60) was 21 µM (inactive). The GI50 (OVCAR-4) was > 100 µM (inactive), the GI50 (LOX IMVI) was 23.5 µM (inactive) and the GI50 (A498) was > 100 µM (inactive). For the same molecule, the GI50 (UACC-62) was > 100 µM (inactive), the GI50 (ACHN) was > 100 µM (inactive) and the GI50 (KM12) was > 100 µM (inactive). The GI50 (SNB-75) was > 100 µM (inactive), the GI50 (NCI-H460) was 29.3 µM (inactive) and the GI50 (SN12C) was > 100 µM (inactive). For the same molecule, the GI50 (SK-MEL-2) was > 100 µM (inactive), the GI50 (786-0) was > 100 µM (inactive) and the GI50 (SF-539) was > 100 µM (inactive). The GI50 (NCI-H522) was > 100 µM (inactive), the GI50 (UACC-257) was > 100 µM (inactive) and the GI50 (DMS-273) was 78.7 µM (inactive). The GI50 (SK-MEL-28) was > 100 µM (inactive).
